Laboratory results: US20210221808A1, “3-OXAZOLINONE COMPOUND, PREPARATION METHOD THEREFOR AND PHARMACEUTICAL APPLICATION THEREOF” (Beijing Innocare Pharma Tech Co., Ltd., priority 2018, published 2021)

Columns and labels:
[1] = target: T1, indoleamine 2,3-dioxygenase (IDO) activity in Hela cells (Homo sapiens, UniProt P14902); test: IDO Intracellular Activity Inhibition Test (Ehrlich method, IFN-γ induced Hela cells); type: cell-based; conditions: IDO activity in Hela cells induced by IFN-γ, 24 hours incubation, OD490
T1 construct: a certain concentration of IFN-γ can induce Hela cells to express IDO; host or cells: HeLa cells induced with IFN-γ
Experimental: IDO Intracellular Activity Inhibition Test
The effect of the compound of the present invention on the indoleamine 2,3-dioxygenase (IDO) activity in Hela cells induced by IFN-γ was evaluated by the Ehrlich method.
The principle underlined for this experiment is summarized as follows: The expression of IDO in Hela cells is low in the absence of any induction. However, a certain concentration of IFN-γ can induce Hela cells to express IDO, so that it can catalyze the production of N-formylkynurenine from tryptophan. The produced N-formylkynurenine can be hydrolyzed by trichloroacetic acid to kynurenine, then a color reaction of the achieved kynurenine with Ehrlich reagent can be used to detect the activity of IDO. The absorbance at 490 nm (OD490) is in proportion to the activity of IDO.
The compound was dissolved and diluted to 5 mM with DMSO (Sigma, catalog number: D5879), then serially diluted in 3 folds each time with DMSO to a minimum concentration of 2.29 μM. The diluent at each concentration point was further diluted in 50 folds with DMEM medium (ThermoFisher, catalog number: 11995073) free of FBS. If the IC50 value of the compound was very low, the initial concentration of the compound could be lowered. Hela cells (ATCC, catalog number CCL-2) were cultured in DMEM complete medium containing 10% FBS (GBICO, catalog number 10099-141) and 100 U/mL penicillin streptomycin mixture (ThermoFisher, catalog number 15140122). When the cell coverage in the culture vessel reached 80-90%, 0.25% pancreatin (containing EDTA) (ThermoFisher, catalog number 25200056) was used to digest and blow off the cells, and the cells were grown in a 96-well plate (Corning, catalog number 3599), 30,000 cells per well (80 μL DMEM medium). The 96-well plate was then incubated in an incubator (37° C., 5% CO2) overnight (18-20 hours).
10 μL of DMEM diluted compound and 10 μL of 500 ng/mL INF-γ were added to each well, and mixed gently. The 96-well plate was placed into an incubator (37° C., 5% CO2) for further incubation. The mixture was taken out and centrifuged at 2000×g at room temperature for 5 minutes after 24 hours of incubation, the supernatant was transferred to the reaction plate (Sigma, catalog number CLS3695), one-twentieth of trichloroacetic acid (Sigma, product number T9159) was added, and incubated at 60° C. after mixed well. 30 minutes later, the reaction plate was taken out and centrifuged at 2000×g at room temperature for 5 minutes, the supernatant was transferred to a clean reaction plate, equal volume of Ehrlich reagent was added, and the mixture was incubated at room temperature after mixed well. The OD490 of each well was determined 5 minutes later.
In the experiment, OD490 of the DMEM medium control group without IFN-γ was used as OD490100% inhbition; OD490 of the group in which the final concentration of IFN-γ in DMSO was 0.2% was used ads OD4900% inhbition.
The percent inhibition of IDO activity in Hela cells by a compound can be calculated by the following formula: […]
IC50 of a compound was calculated by the following formula using 8 concentration points and XLfit (ID Business Solutions Ltd., UK) software
Y=Bottom+(Top−Bottom)/(1+10^((log IC50−X)*slope factor))
where Y is inhibition percentage. Bottom is the bottom plateau of the S-type curve, Top is the top plateau of the S-type curve, X is the logarithm of the concentration of the tested compound, and slope factor is the slope coefficient of the curve.

plasma IDO activity = target: T2, plasma IDO activity (Mus musculus, UniProt P28776); conditions: single administration, blank mice; cited from earlier work
T2 construct: host or cells: mice, in vivo

CT26 tumors = conditions: repeated administration; cited from earlier work

T1 sequence (P14902 whole entry): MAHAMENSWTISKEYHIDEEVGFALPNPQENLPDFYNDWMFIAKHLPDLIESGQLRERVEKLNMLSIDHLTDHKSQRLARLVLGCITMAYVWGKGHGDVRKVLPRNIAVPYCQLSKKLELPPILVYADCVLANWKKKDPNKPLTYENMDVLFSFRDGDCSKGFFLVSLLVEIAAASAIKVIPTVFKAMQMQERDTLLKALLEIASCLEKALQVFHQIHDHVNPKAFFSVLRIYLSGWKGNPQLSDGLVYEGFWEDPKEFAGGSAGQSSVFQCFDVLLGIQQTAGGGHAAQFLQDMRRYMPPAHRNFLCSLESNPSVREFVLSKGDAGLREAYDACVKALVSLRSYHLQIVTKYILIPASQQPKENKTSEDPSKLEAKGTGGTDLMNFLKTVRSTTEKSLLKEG
T2 sequence (P28776 whole entry): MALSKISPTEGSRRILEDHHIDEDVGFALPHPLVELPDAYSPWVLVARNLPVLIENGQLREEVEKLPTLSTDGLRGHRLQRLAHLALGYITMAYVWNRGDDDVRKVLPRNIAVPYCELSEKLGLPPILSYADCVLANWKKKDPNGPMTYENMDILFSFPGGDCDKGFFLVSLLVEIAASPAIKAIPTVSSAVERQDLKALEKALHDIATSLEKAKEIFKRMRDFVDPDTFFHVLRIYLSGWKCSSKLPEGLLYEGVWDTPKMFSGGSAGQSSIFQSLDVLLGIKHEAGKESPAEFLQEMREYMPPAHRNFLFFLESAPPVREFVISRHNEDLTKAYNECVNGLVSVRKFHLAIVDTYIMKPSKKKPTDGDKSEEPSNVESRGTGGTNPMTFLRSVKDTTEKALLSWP

Row | Structure (SMILES) | IC50 [1] [nM] | inhibition of plasma IDO activity (plasma IDO activity) | expansion of CT26 tumors (CT26 tumors)
1 | O=c1c2ccc(Cl)cc2[nH]n1C[C@H]1CC[C@H](c2ccnc3ccc(F)cc32)CC1 [Compound 1, 6-chloro-2-(((1r,4r)-4-(6-fluoroquinolin-4-yl)cyclohexyl)methyl)-1,2-dihydro-3H-indazol-3-one] | 50 to 200 |  | 
2 | Cc1cc([C@H]2CC[C@@H]([C@@H](C)n3[nH]c4cc(Cl)ccc4c3=O)CC2)ccn1 [Compound 5, 6-chloro-2-((R)-1-((1s,4S)-4-(2-methylpyridin-4-yl)cyclohexyl)ethyl)-1,2-dihydro-3H-indazol-3-one] | < 50 |  | 
3 | O=c1c2ccc(Cl)cc2[nH]n1C[C@H]1CC[C@@H](c2ccnc3ccc(F)cc32)CC1 [Compound 2, 6-chloro-2-(((1s,4s)-4-(6-fluoroquinolin-4-yl)cyclohexyl)methyl)-1,2-dihydro-3H-indazol-3-one] | < 50 |  | 
4 | C[C@H]([C@H]1CC[C@@H](c2ccnc3ccc(F)cc32)CC1)n1[nH]c2cc(Cl)ccc2c1=O [Compound 6, 6-chloro-2-((R)-1-((1s,4S)-4-(6-fluoroquinolin-4-yl)cyclohexyl)ethyl)-1,2-dihydro-3H-indazol-3-one] | < 50 |  | 
5 | NS(=O)(=O)NCCNc1nonc1C(=NO)Nc1ccc(F)c(Br)c1 [INCB-024360] |  | effectively inhibit the plasma IDO activity of blank mice to be at the level of IDO-deficient mice | hinders the expansion of CT26 tumors
6 | C[C@H]([C@H]1CC[C@@H](c2ccnc3ccc(F)cc32)CC1)n1[nH]c2ccc(Br)cc2c1=O [Compound 11, 5-bromo-2-((R)-1-((1s,4S)-4-(6-fluoroquinolin-4-yl)cyclohexyl)ethyl)-1,2-dihydro-3H-indazol-3-one] | < 50 |  | 
7 | CC([C@H]1CC[C@@H](c2ccnc3ccc(F)cc32)CC1)n1[nH]c2cc(Cl)ccc2c1=O (stereo partly shown) [Compound 4, 6-chloro-2-(1-((1s,4s)-4-(6-fluoroquinolin-4-yl)cyclohexyl)ethyl)-1,2-dihydro-3H-indazol-3-one] | < 50 |  | 
8 | C[C@H]([C@H]1CC[C@@H](c2ccnc3ccc(F)cc32)CC1)n1[nH]c2cc(Cl)cnc2c1=O [Compound 8, 6-chloro-2-((R)-1-((1s,4S)-4-(6-fluoroquinolin-4-yl)cyclohexyl)ethyl)-1,2-dihydro-3H-pyrazolo[4,3-b]pyridin-3-one] | < 50 |  | 
9 | CC([C@H]1CC[C@H](c2ccnc3ccc(F)cc32)CC1)n1[nH]c2cc(Cl)ccc2c1=O (stereo partly shown) [Compound 3, 6-chloro-2-(1-((1r,4r)-4-(6-fluoroquinolin-4-yl)cyclohexyl)ethyl)-1,2-dihydro-3H-indazol-3-one] | 50 to 200 |  | 
10 | C[C@H]([C@H]1CC[C@@H](c2ccnc3ccc(F)cc32)CC1)n1[nH]c2cc(Cl)c(Cl)cc2c1=O [Compound 10, 5,6-dichloro-2-((R)-1-((1s,4S)-4-(6-fluoroquinolin-4-yl)cyclohexyl)ethyl)-1,2-dihydro-3H-indazol-3-one] | < 50 |  | 
11 | C[C@H]([C@H]1CC[C@@H](c2ccnc3ccc(F)cc32)CC1)n1[nH]c2ncc(Cl)cc2c1=O [Compound 9, 5-chloro-2-((R)-1-((1s,4S)-4-(6-fluoroquinolin-4-yl)cyclohexyl)ethyl)-1,2-dihydro-3H-pyrazolo[3,4-b]pyridin-3-one] | < 50 |  | 
12 | C[C@H]([C@H]1CC[C@@H](c2ccnc3ccc(F)cc32)CC1)n1[nH]c2ccc(Cl)cc2c1=O [Compound 7, 5-chloro-2-((R)-1-((1s,4S)-4-(6-fluoroquinolin-4-yl)cyclohexyl)ethyl)-1,2-dihydro-3H-indazol-3-one] | < 50 |  | 
